From ChEMBL document CHEMBL3046894, “Synthesis and Herbicidal Activity of Pyrimidinyl Salicylic and Thiosalicylic Acids” (J Pestic Sci, 1996)
Calls of active or inactive are those of the source. The calls are words filed in the database; no cut-off is given here.

Columns and labels:
[1] = tested on: Persicaria nodosa; assay: Pre-emergence herbicidal activity against Persicaria nodosa assessed as growth inhibition at 25 g a.i/10 a; assay type: functional, organism-based
[2] = tested on: Abutilon theophrasti; assay: Pre-emergence herbicidal activity against Abutilon theophrasti (velvetleaf) assessed as mortality at 6.3 g a.i/10 a; assay type: functional; conditions: Abutilon theophrasti, pre-emergence
[3] = tested on: Glycine max; assay: (§1) Post-emergence phytotoxicity against Glycine max (soybean) assessed as mortality at 1.6 g a.i/10 a applied 11 days after germination as foliar spray; assay type: organism-based; conditions: in vivo, other, 264 h
[4] = tested on: Abutilon theophrasti; assay: Post-emergence herbicidal activity against Abutilon theophrasti (velvetleaf) assessed as mortality at 6.3 g a.i/10 a applied 11 days after germination as foliar spray; assay type: functional; conditions: 264 h
[5] = tested on: Chenopodium album; assay: Pre-emergence herbicidal activity against Chenopodium album assessed as growth inhibition at 25 g a.i/10 a; assay type: functional, organism-based
[6] = tested on: Gossypium hirsutum; assay: Pre-emergence phytotoxicity against Gossypium hirsutum (cotton) assessed as mortality at 1.6 g a.i/10 a; assay type: organism-based; conditions: in vivo, other
[7] = tested on: Glycine max; assay: Pre-emergence phytotoxicity against Glycine max (soybean) assessed as mortality at 1.6 g a.i/10 a; assay type: organism-based; conditions: in vivo, other
[8] = tested on: Cyperus iria; assay: Post-emergence herbicidal activity against Cyperus iria assessed as growth inhibition at 25 g a.i/10 a applied 11 days after germination as foliar spray; assay type: functional, organism-based
[9] = tested on: Gossypium hirsutum; assay: (§2) Post-emergence phytotoxicity against Gossypium hirsutum (cotton) assessed as mortality at 6.3 g a.i/10 a applied 11 days after germination as foliar spray; assay type: organism-based; conditions: in vivo, other, 264 h
[10] = tested on: Echinochloa crus-galli; assay: Post-emergence herbicidal activity against Echinochloa crus-galli (barnyard grass) assessed as growth inhibition at 25 g a.i/10 a applied 11 days after germination as foliar spray; assay type: functional, organism-based
[11] = tested on: Gossypium hirsutum; assay: Post-emergence phytotoxicity against Gossypium hirsutum (cotton) assessed as mortality at 1.6 g a.i/10 a applied 11 days after germination as foliar spray; assay type: organism-based; conditions: in vivo, other, 264 h
[12] = tested on: Cyperus iria; assay: Pre-emergence herbicidal activity against Cyperus iria assessed as growth inhibition at 25 g a.i/10 a; assay type: functional, organism-based
[13] = tested on: Ipomoea lacunosa; assay: Pre-emergence herbicidal activity against Ipomoea lacunosa assessed as mortality at 1.6 g a.i/10 a; assay type: functional; conditions: Ipomoea lacunosa, pre-emergence
[14] = tested on: Persicaria nodosa; assay: Post-emergence herbicidal activity against Persicaria nodosa assessed as growth inhibition at 25 g a.i/10 a applied 11 days after germination as foliar spray; assay type: functional, organism-based
[15] = tested on: Echinochloa crus-galli; assay: Post-emergence herbicidal activity against Echinochloa crus-galli (barnyard grass) assessed as mortality at 6.3 g a.i/10 a applied 11 days after germination as foliar spray; assay type: functional; conditions: 264 h
[16] = tested on: Echinochloa crus-galli; assay: Pre-emergence herbicidal activity against Echinochloa crus-galli (barnyard grass) assessed as growth inhibition at 25 g a.i/10 a; assay type: functional, organism-based
[17] = (§3) Pre-emergence phytotoxicity against Glycine max (soybean) assessed as mortality at 6.3 g a.i/10 a; assay type: organism-based; conditions: in vivo, 6.3 g a.i/10 a, read-out: mortality
[18] = tested on: Amaranthus retroflexus; assay: Pre-emergence herbicidal activity against Amaranthus retroflexus assessed as growth inhibition at 25 g a.i/10 a; assay type: functional, organism-based
[19] = tested on: Abutilon theophrasti; assay: Post-emergence herbicidal activity against Abutilon theophrasti (velvetleaf) assessed as mortality at 1.6 g a.i/10 a applied 11 days after germination as foliar spray; assay type: functional; conditions: 264 h
[20] = tested on: Chenopodium album; assay: Post-emergence herbicidal activity against Chenopodium album assessed as growth inhibition at 25 g a.i/10 a applied 11 days after germination as foliar spray; assay type: functional, organism-based
[21] = (§4) Pre-emergence phytotoxicity against Zea mays (maize) assessed as mortality at 1.6 g a.i/10 a; assay type: organism-based; conditions: in vivo, 1.6 g a.i/10 a, read-out: mortality
[22] = tested on: Echinochloa crus-galli; assay: Pre-emergence herbicidal activity against Echinochloa crus-galli (barnyard grass) assessed as mortality at 6.3 g a.i/10 a; assay type: functional; conditions: Echinochloa crus-galli, pre-emergence
[23] = tested on: Gossypium hirsutum; assay: Pre-emergence phytotoxicity against Gossypium hirsutum (cotton) assessed as mortality at 6.3 g a.i/10 a; assay type: organism-based; conditions: in vivo, other
[24] = tested on: Digitaria sanguinalis; assay: Pre-emergence herbicidal activity against Digitaria sanguinalis (hairy crabgrass) assessed as growth inhibition at 25 g a.i/10 a; assay type: functional, organism-based
[25] = tested on: Amaranthus retroflexus; assay: Post-emergence herbicidal activity against Amaranthus retroflexus assessed as growth inhibition at 25 g a.i/10 a applied 11 days after germination as foliar spray; assay type: functional, organism-based
[26] = tested on: Digitaria sanguinalis; assay: Post-emergence herbicidal activity against Digitaria sanguinalis (hairy crabgrass) assessed as growth inhibition at 25 g a.i/10 a applied 11 days after germination as foliar spray; assay type: functional, organism-based
[27] = tested on: Zea mays; assay: (§5) Post-emergence phytotoxicity against Zea mays (maize) assessed as mortality at 1.6 g a.i/10 a applied 11 days after germination as foliar spray; assay type: organism-based; conditions: in vivo, other, 264 h
[28] = as §1; assay type: organism-based; conditions: in vivo, 1.6 g a.i/10 a
[29] = tested on: Ipomoea lacunosa; assay: Pre-emergence herbicidal activity against Ipomoea lacunosa assessed as mortality at 6.3 g a.i/10 a; assay type: functional; conditions: Ipomoea lacunosa, pre-emergence
[30] = tested on: Glycine max; assay: as §3; assay type: organism-based; conditions: in vivo, other
[31] = tested on: Zea mays; assay: as §4; assay type: organism-based; conditions: in vivo, other
[32] = tested on: Xanthium strumarium; assay: Pre-emergence herbicidal activity against Xanthium strumarium (cocklebur) assessed as mortality at 1.6 g a.i/10 a; assay type: functional; conditions: Xanthium strumarium, pre-emergence
[33] = as §5; assay type: organism-based; conditions: in vivo, 1.6 g a.i/10 a
[34] = tested on: Glycine max; assay: Post-emergence phytotoxicity against Glycine max (soybean) assessed as mortality at 6.3 g a.i/10 a applied 11 days after germination as foliar spray; assay type: organism-based; conditions: in vivo, other, 264 h
[35] = as §2; assay type: organism-based; conditions: in vivo, 6.3 g a.i/10 a
[36] = tested on: Ipomoea lacunosa; assay: Post-emergence herbicidal activity against Ipomoea lacunosa assessed as mortality at 6.3 g a.i/10 a applied 11 days after germination as foliar spray; assay type: functional; conditions: 264 h
[37] = tested on: Echinochloa crus-galli; assay: Post-emergence herbicidal activity against Echinochloa crus-galli (barnyard grass) assessed as mortality at 1.6 g a.i/10 a applied 11 days after germination as foliar spray; assay type: functional; conditions: 264 h
[38] = tested on: Xanthium strumarium; assay: Post-emergence herbicidal activity against Xanthium strumarium (cocklebur) assessed as mortality at 1.6 g a.i/10 a applied 11 days after germination as foliar spray; assay type: functional; conditions: 264 h
[39] = tested on: Zea mays; assay: Post-emergence phytotoxicity against Zea mays (maize) assessed as mortality at 6.3 g a.i/10 a applied 11 days after germination as foliar spray; assay type: organism-based; conditions: in vivo, other, 264 h
[40] = tested on: Ipomoea lacunosa; assay: Post-emergence herbicidal activity against Ipomoea lacunosa assessed as mortality at 1.6 g a.i/10 a applied 11 days after germination as foliar spray; assay type: functional; conditions: 264 h
[41] = tested on: Xanthium strumarium; assay: Pre-emergence herbicidal activity against Xanthium strumarium (cocklebur) assessed as mortality at 6.3 g a.i/10 a; assay type: functional; conditions: Xanthium strumarium, pre-emergence

Row | Structure (SMILES) | growth inhibition (GI) [1] | mortality at 63 g/ha [4] [%] | growth inhibition (GI) [5] | Activity [7] | growth inhibition (GI) [8] | Activity [9] | growth inhibition (GI) [10] | Activity [11] | growth inhibition (GI) [12] | mortality at 16 g/ha [13] [%] | growth inhibition (GI) [14] | mortality at 63 g/ha [15] [%] | growth inhibition (GI) [16] | growth inhibition (GI) [18] | mortality at 16 g/ha [19] [%] | growth inhibition (GI) [20] | Activity [23] | growth inhibition (GI) [24] | growth inhibition (GI) [25] | growth inhibition (GI) [26] | also measured
1 | COc1cc(OC)nc(Oc2cccc(F)c2C(=O)O)n1 | Active | > 90 | Active | Toxic | Active | Toxic | Active | Toxic | Active | < 5 | Active | > 90 | Active | Active | > 90 | Active | Toxic | Active | Active | Active | mortality at 63 g/ha [2]: > 90%; Activity [3]: Toxic; Activity [6]: Non-toxic; mortality [17]: > 90%; mortality [21]: > 90%; mortality at 63 g/ha [22]: > 90%; Activity [27]: Toxic
2 | CCOc1cccc(Oc2nc(OC)cc(OC)n2)c1C(=O)O | Active | > 90 | Active | Non-toxic | Active | Toxic | Active | Non-toxic | Active | < 5 | Active |  | Active | Active |  | Active | Non-toxic | Active | Active | Active | mortality at 264 h [28]: > 90%; mortality at 63 g/ha [29]: < 5%; Activity [30]: Toxic; Activity [31]: Toxic; mortality at 16 g/ha [32]: < 5%; mortality at 264 h [33]: > 90%
3 | COc1cc(OC)nc(Sc2cccc(SC)c2C(=O)O)n1 |  | > 90 |  |  |  |  |  | Non-toxic |  |  |  | < 5 |  |  | > 90 |  |  |  |  |  | Activity [3]: Toxic; Activity [34]: Toxic; mortality at 264 h [35]: > 90%; mortality at 63 g/ha [36]: > 90%; mortality at 16 g/ha [37]: < 5%; Activity [27]: Toxic
4 | COc1cc(OC)nc(Oc2cccc(N)c2C(=O)O)n1 | inactive |  | Active |  | Active | Toxic | Active | Non-toxic | Active |  | Active |  | inactive | Active | < 5 | Active |  | inactive | Active | Active | Activity [3]: Toxic; mortality at 16 g/ha [38]: < 5%; Activity [39]: Toxic; Activity [27]: Toxic
5 | CCc1cccc(Oc2nc(OC)cc(OC)n2)c1C(=O)O | Active | > 90 | Active | Non-toxic | Active | Toxic | Active | Toxic | Active | < 5 | Active | > 90 | Active | Active | > 90 | Active | Non-toxic | Active | Active | Active | mortality at 264 h [28]: > 90%; Activity [30]: Toxic; Activity [31]: Toxic; mortality at 63 g/ha [22]: > 90%; mortality at 16 g/ha [32]: < 5%; mortality at 16 g/ha [40]: < 5%; mortality at 16 g/ha [38]: < 5%; mortality at 264 h [33]: > 90%
6 | COc1cc(OC)nc(Oc2cccc(OC)c2C(=O)O)n1 | Active | > 90 | Active | Non-toxic | Active |  | Active | Toxic | Active | < 5 | Active | > 90 | Active | Active | > 90 | Active | Non-toxic | Active | Active | Active | mortality at 63 g/ha [41]: < 5%; mortality at 63 g/ha [2]: > 90%; mortality at 264 h [28]: > 90%; mortality at 264 h [35]: > 90%; mortality at 63 g/ha [29]: < 5%; mortality [17]: > 90%; Activity [31]: Toxic; mortality at 63 g/ha [22]: > 90%; mortality at 16 g/ha [32]: < 5%; mortality at 16 g/ha [38]: < 5%; mortality at 264 h [33]: > 90%
